Assay results as given in patent publication US20210269434A1, “TRICYCLIC COMPOUNDS AS INHIBITORS OF KRAS” (Incyte Corporation, priority 2020, published 2021).

What was measured:
KRAS G12C = KRAS G12C (Homo sapiens, UniProt P01116, G12C); assay: GDP-GTP exchange assay (KRAS_G12C exchange); format: biochemical; conditions: bodipy-GDP loaded KRAS G12C 2.5 nM, SOS1 150 nM, GppNHp; 2 hours pre-incubation, 2 hours reaction; read-out: G12C_exchange
Experimental: Example A. GDP-GTP Exchange Assay
The inhibitor potency of the exemplified compounds was determined in a fluorescence based guanine nucleotide exchange assay, which measures the exchange of bodipy-GDP (fluorescently labeled GDP) for GppNHp (Non-hydrolyzable GTP analog) to generate the active state of KRAS in the presence of SOS1 (guanine nucleotide exchange factor). Inhibitors were serially diluted in DMSO and a volume of 0.1 μL was transferred to the wells of a black low volume 384-well plate. 5 μL/well volume of bodipy-loaded KRAS G12C diluted to 5 nM in assay buffer (25 mM Hepes pH 7.5, 50 mM NaCl, 10 mM MgCl2 and 0.01% Brij-35) was added to the plate and pre-incubated with inhibitor for 2 hours at ambient temperature. Appropriate controls (enzyme with no inhibitor or with a G12C inhibitor (AMG-510)) were included on the plate. The exchange was initiated by the addition of a 5 μL/well volume containing 1 mM GppNHp and 300 nM SOS1 in assay buffer. The 10 μL/well reaction concentration of the bodipy-loaded KRAS G12C, GppNHp, and SOS1 were 2.5 nM, 500 uM, and 150 nM, respectively. The reaction plates were incubated at ambient temperature for 2 hours, a time estimated for complete GDP-GTP exchange in the absence of inhibitor. For the KRAS G12D and G12V mutants, similar guanine nucleotide exchange assays were used with 2.5 nM as final concentration for the bodipy loaded KRAS proteins and with 4 hours and 3 hours incubation after adding GppNHp-SOS1 mixture for G12D and G12V respectively. A cyclic peptide described to selectively bind G12D mutant (Sakamoto et al., BBRC 484.3 (2017), 605-611) or internal compounds with confirmed binding were used as positive controls in the assay plates. Fluorescence intensities were measured on a PheraStar plate reader instrument (BMG Labtech) with excitation at 485 nm and emission at 520 nm.
Either GraphPad prism or XLfit was used to analyze the data. The IC50 values were derived by fitting the data to a four parameter logistic equation producing a sigmoidal dose-response curve with a variable Hill coefficient. Prism equation: Y=Bottom+(Top−Bottom)/(1+10^((Log lC50−X)*Hill slope)); XLfit equation: Y=(A+((B−A)/(1+((X/C)^D)))) where X is the logarithm of inhibitor concentration and Y is the response.

[1] = tested on: MIA PaCa-2 (KRAS G12C) cells; assay: Cellular pERK HTRF assay (KRAS_G12C pERK); format: cell-based, human; conditions: Homo sapiens, MIA PaCa-2, 4 hours incubation, read-out: G12C_pERK
Experimental: Example C: Cellular pERK HTRF Assay
MIA PaCa-2 (KRAS G12C; ATCC® CRL-1420), A427 (KRAS G12D; ATCC® HTB53), HPAF-II (KRAS G12D; ATCC® CRL-1997) and NCI-H838 (KRAS WT; ATCC® CRL-5844) cells are purchased from ATCC and maintained in RPMI 1640 media supplemented with 10% FBS (Gibco/Life Technologies). The cells are plated at 5000 cells per well (8 uL) into Greiner 384-well low volume, flat-bottom, tissue culture treated white plates and incubated overnight at 37° C., 5% CO2. The next morning, test compound stock solutions are diluted in media at 3× the final concentration, and 4 uL are added to the cells. The plate is mixed by gentle rotation for 30 seconds (250 rpm) at room temperature. The cells are incubated with the KRAS G12C and G12D compounds for 4 hours or 2 hours respectively at 37° C., 5% CO2.
4 uL of 4× lysis buffer with blocking reagent (1:25) (Cisbio) are added to each well and plates are rotated gently (300 rpm) for 30 minutes at room temperature. 4 uL per well of Cisbio anti Phospho-ERK 1/2 d2 is mixed with anti Phospho-ERK 1/2 Cryptate (1:1) are added to each well, mixed by rotation and incubated overnight in the dark at room temperature. Plates are read on the Pherastar plate reader at 665 nm and 620 nm wavelengths. IC50 determination is performed by fitting the curve of inhibitor percent inhibition versus the log of the inhibitor concentration using the GraphPad Prism 7 software.

Chain of KRAS G12C (P01116 1-188 isoform P01116-2 G12C): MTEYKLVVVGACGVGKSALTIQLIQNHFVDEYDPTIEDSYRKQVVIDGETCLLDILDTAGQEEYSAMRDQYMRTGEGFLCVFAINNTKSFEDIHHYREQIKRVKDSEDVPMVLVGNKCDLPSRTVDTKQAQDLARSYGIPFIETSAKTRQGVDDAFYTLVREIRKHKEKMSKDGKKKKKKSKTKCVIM

Row | IC50 (KRAS G12C) [nM] | IC50 [1] [nM] | Compound
1 | ≤ 100 | 1000 to 5000 | C=CC(=O)N1CCCC(n2cnc3c(OC[C@@H]4CCCN4C)nc4c(F)c(-c5cc(O)cc6ccccc56)c(Cl)cc4c32)C1 (mixture of isomers) [Example 5, 1-(3-(8-chloro-6-fluoro-7-(3-hydroxynaphthalen-1-yl)-4-(((S)-1-methylpyrrolidin-2-yl)methoxy)-1H-imidazo[4,5-c]quinolin-1-yl)piperidin-1-yl)prop-2-en-1-one]
2 | ≤ 100 | ≤ 100 | C=CC(=O)N1CCC(n2cnc3c(OC[C@@H]4CCCN4C)nc4c(F)c(-c5cc(O)cc6ccccc56)c(Cl)cc4c32)C1 (mixture of isomers) [Example 7, 1-(3-(8-chloro-6-fluoro-7-(3-hydroxynaphthalen-1-yl)-4-(((S)-1-methyl-pyrrolidin-2-yl)methoxy)-1H-imidazo[4,5-c]quinolin-1-yl)pyrrolidin-1-yl)prop-2-en-1-one]
3 | ≤ 100 | ≤ 100 | C=CC(=O)N1CCC(n2cnc3c(OC[C@@H]4CCCN4C)nc4c(F)c(-c5cccc6ccccc56)c(Cl)cc4c32)CC1CC#N (mixture of isomers) [Example 38, 2-(1-acryloyl-4-(8-chloro-6-fluoro-4-(((S)-1-methylpyrrolidin-2-yl)methoxy)-7-(naphthalen-1-yl)-1H-imidazo[4,5-c]quinolin-1-yl)piperidin-2-yl)acetonitrile]
4 | ≤ 100 | ≤ 100 | C=CC(=O)N1CCC(n2cnc3c(OC[C@@H]4CCCN4C)nc4c(F)c(-c5cccc(Cl)c5C)c(Cl)cc4c32)CC1CC#N (mixture of isomers) [Example 41, 2-(1-acryloyl-4-(8-chloro-7-(3-chloro-2-methylphenyl)-6-fluoro-4-(((S)-1-methylpyrrolidin-2-yl)methoxy)-1H-imidazo[4,5-c]quinolin-1-yl)piperidin-2-yl)acetonitrile]
5 | ≤ 100 | ≤ 100 | C=CC(=O)N1CCC(n2cnc3c(OC[C@@H]4CCCN4C)nc4c(F)c(-c5cccc(F)c5C)c(Cl)cc4c32)CC1CC#N (mixture of isomers) [Example 42, 2-(1-acryloyl-4-(8-chloro-6-fluoro-7-(3-fluoro-2-methylphenyl)-4-(((S)-1-methylpyrrolidin-2-yl)methoxy)-1H-imidazo[4,5-c]quinolin-1-yl)piperidin-2-yl)acetonitrile]
6 | ≤ 100 | ≤ 100 | C=CC(=O)N1CCC(n2cnc3c(OC[C@@H]4CCCN4C)nc4c(F)c(-c5cccc(C)c5C)c(Cl)cc4c32)CC1CC#N (mixture of isomers) [Example 43, 2-(1-acryloyl-4-(8-chloro-7-(2,3-dimethylphenyl)-6-fluoro-4-(((S)-1-methyl-pyrrolidin-2-yl)methoxy)-1H-imidazo[4,5-c]quinolin-1-yl)piperidin-2-yl)acetonitrile]
7 | ≤ 100 | ≤ 100 | C=CC(=O)N1CCC(n2cnc3c(OC[C@@H]4CCCN4C)nc4c(F)c(-c5cccc6c5CCC6)c(Cl)cc4c32)CC1CC#N (mixture of isomers) [Example 44, 2-(1-acryloyl-4-(8-chloro-7-(2,3-dihydro-1H-inden-4-yl)-6-fluoro-4-(((S)-1-methylpyrrolidin-2-yl)methoxy)-1H-imidazo[4,5-c]quinolin-1-yl)piperidin-2-yl)acetonitrile]
8 | ≤ 100 | ≤ 100 | C=CC(=O)N1C[C@H](C)[C@@H](n2cnc3c(N4CC(N(C)C)C4)nc4c(F)c(-c5cc(O)cc6ccccc56)c(Cl)cc4c32)C1 (racemic) [Example 31a, 1-((trans)-3-(8-chloro-4-(3-(dimethylamino)azetidin-1-yl)-6-fluoro-7-(3-hydroxynaphthalen-1-yl)-1H-imidazo[4,5-c]quinolin-1-yl)-4-methylpyrrolidin-1-yl)prop-2-en-1-one]
9 | 100 to 1000 | 1000 to 5000 | C=CC(=O)N1CCC(n2cnc3c(=O)n(C)c4c(F)c(-c5cc(O)cc6ccccc56)c(Cl)cc4c32)C1 (racemic) [Example 33, 1-(1-acryloylpyrrolidin-3-yl)-8-chloro-6-fluoro-7-(3-hydroxynaphthalen-1-yl)-5-methyl-1,5-dihydro-4H-imidazo[4,5-c]quinolin-4-one]
10 | ≤ 100 | ≤ 100 | C=CC(=O)N1C[C@H](OC)[C@@H](n2cnc3c(N4CC(N(C)C)C4)nc4c(F)c(-c5cc(O)cc6ccccc56)c(Cl)cc4c32)C1 (relative stereo) [Example 30b, 1-((trans)-3-(8-chloro-4-(3-(dimethylamino)azetidin-1-yl)-6-fluoro-7-(3-hydroxynaphthalen-1-yl)-1H-imidazo[4,5-c]quinolin-1-yl)-4-methoxypyrrolidin-1-yl)prop-2-en-1-one]
11 | ≤ 100 | 100 to 1000 | C=CC(=O)N1CCC(n2cnc3c(OC[C@@H]4CCCN4C)nc4c(F)c(-c5cc(O)cc6ccccc56)c(Cl)cc4c32)CC1 (single isomer, unassigned) [Example 1a]
12 | 100 to 1000 | 1000 to 5000 | C=CC(=O)N1CCC(n2cnc3c(OC[C@@H]4CCCN4C)nc4c(F)c(-c5c(O)cccc5F)c(Cl)cc4c32)CC1 (single isomer, unassigned) [Example 2a]
13 | 1000 to 5000 | – | C=CC(=O)N1CCC(n2cnc3c(OC[C@@H]4CCCN4C)nc4c(F)c(-c5cccc(O)c5F)c(Cl)cc4c32)CC1 (single isomer, unassigned) [Example 3a]
14 | ≤ 100 | 100 to 1000 | C=CC(=O)N1CCC(n2cnc3c(OC[C@@H]4CCCN4C)nc4c(F)c(-c5c(C)ccc6[nH]ncc56)c(Cl)cc4c32)CC1 (single isomer, unassigned) [Example 4a]
15 | ≤ 100 | 100 to 1000 | C=CC(=O)N1CC(n2cnc3c(OC[C@@H]4CCCN4C)nc4c(F)c(-c5cc(O)cc6ccccc56)c(Cl)cc4c32)C1 (single isomer, unassigned) [Example 6a]
16 | ≤ 100 | ≤ 100 | C=CC(=O)N1CCC(n2nnc3c(OC[C@@H]4CCCN4C)nc4c(F)c(-c5cc(O)cc6ccccc56)c(Cl)cc4c32)CC1 (single isomer, unassigned) [Example 14a]
17 | ≤ 100 | ≤ 100 | C=CC(=O)N1C[C@H](C)[C@@H](n2cnc3c(OC[C@@H]4CCCN4C)nc4c(F)c(-c5cc(O)cc6ccccc56)c(Cl)cc4c32)C1 (single isomer, unassigned) [Example 29b]
18 | ≤ 100 | ≤ 100 | C=CC(=O)N1CCC(n2cnc3c(OC[C@@H]4CCCN4C)nc4c(F)c(-c5cc(O)cc6ccccc56)c(Cl)cc4c32)CC1CC#N (single isomer, unassigned) [Example 36a]
19 | 100 to 1000 | – | C=CC(=O)N1CCC(n2cnc3c(OCc4ccnn4C)nc4c(F)c(-c5cc(O)cc6ccccc56)c(Cl)cc4c32)CC1 [Example 8, 1-(4-(8-chloro-6-fluoro-7-(3-hydroxynaphthalen-1-yl)-4-((1-methyl-1H-pyrazol-5-yl)methoxy)-1H-imidazo[4,5-c]quinolin-1-yl)piperidin-1-yl)prop-2-en-1-one]
20 | 100 to 1000 | – | C=CC(=O)N1CC(n2c(=O)[nH]c3c(=O)n(-c4ccccc4)c4nc(-c5cc(O)cc6ccccc56)c(F)cc4c32)C1 [Example 28, 1-(1-acryloylazetidin-3-yl)-8-fluoro-7-(3-hydroxynaphthalen-1-yl)-5-phenyl-3,5-dihydro-1H-imidazo[4,5-c][1,8]naphthyridine-2,4-dione]
